# Results published in ChEMBL document CHEMBL4477208, “Discovery and Rational Design of Pteridin-7(8H)-one-Based Inhibitors Targeting FMS-like Tyrosine Kinase 3 (FLT3) and Its Mutants” (J Med Chem, 2016).
# Columns and labels:
# MV4-11 [1] = test: Cell cycle arrest in human MV4-11 cells assessed as accumulation at S phase at 1 nM after 48 hrs by PI/RNase staining based FACS analysis (reference value: 16.50%); format: functional
# MV4-11 [2] = test: Induction of apoptosis in human MV4-11 cells assessed as late apoptotic cells at 1 nM after 48 hrs by annexin V/propidium iodide staining based FACS analysis (reference value: 3.01%); format: functional
# [3] = target: Receptor-type tyrosine-protein kinase FLT3 (Homo sapiens, UniProt P36888, D835V); test: Binding affinity to human partial length FLT3 D835V mutant (592 to 969 residues) expressed in mammalian expression system after 1 hr
# MV4-11 [4] = test: Cell cycle arrest in human MV4-11 cells assessed as accumulation at S phase at 100 nM after 48 hrs by PI/RNase staining based FACS analysis (reference value: 16.50%); format: functional
# [5] = target: Platelet-derived growth factor receptor beta (Homo sapiens) (UniProt P09619); test: Inhibition of human PDGFRB expressed in bacterial system assessed as remaining enzyme activity at 1 uM relative to untreated control
# Sequence of Platelet-derived growth factor receptor beta (Homo sapiens) (P09619 whole entry): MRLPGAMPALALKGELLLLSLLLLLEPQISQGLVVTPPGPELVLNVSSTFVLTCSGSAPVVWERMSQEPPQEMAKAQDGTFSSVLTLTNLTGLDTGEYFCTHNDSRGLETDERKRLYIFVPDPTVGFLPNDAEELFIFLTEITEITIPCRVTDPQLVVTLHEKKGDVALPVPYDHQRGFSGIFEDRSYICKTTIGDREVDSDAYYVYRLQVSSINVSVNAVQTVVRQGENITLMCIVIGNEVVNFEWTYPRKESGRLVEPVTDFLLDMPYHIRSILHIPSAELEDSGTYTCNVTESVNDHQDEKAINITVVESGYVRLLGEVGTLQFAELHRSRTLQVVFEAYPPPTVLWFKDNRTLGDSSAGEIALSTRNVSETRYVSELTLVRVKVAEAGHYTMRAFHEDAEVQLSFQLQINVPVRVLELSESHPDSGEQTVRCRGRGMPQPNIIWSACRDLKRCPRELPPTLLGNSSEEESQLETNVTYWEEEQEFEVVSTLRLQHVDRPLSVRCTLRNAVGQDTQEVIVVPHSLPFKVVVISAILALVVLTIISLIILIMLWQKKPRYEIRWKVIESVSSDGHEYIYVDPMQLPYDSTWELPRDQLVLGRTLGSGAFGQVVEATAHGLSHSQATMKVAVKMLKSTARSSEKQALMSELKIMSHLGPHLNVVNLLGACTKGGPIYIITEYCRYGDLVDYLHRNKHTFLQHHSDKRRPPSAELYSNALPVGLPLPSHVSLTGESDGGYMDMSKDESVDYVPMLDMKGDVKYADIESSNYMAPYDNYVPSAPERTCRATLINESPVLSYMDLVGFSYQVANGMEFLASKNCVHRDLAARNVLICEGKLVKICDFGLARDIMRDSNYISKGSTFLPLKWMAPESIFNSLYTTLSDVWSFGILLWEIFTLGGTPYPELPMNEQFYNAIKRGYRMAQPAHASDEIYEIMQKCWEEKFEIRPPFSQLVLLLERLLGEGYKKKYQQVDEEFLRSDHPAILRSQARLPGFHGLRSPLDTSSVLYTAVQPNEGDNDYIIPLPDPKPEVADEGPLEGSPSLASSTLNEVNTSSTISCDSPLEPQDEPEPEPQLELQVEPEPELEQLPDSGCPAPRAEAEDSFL
# THP-1 = test: Antiproliferative activity against human THP1 cells after 72 hrs by MTT assay; format: functional, cell-based; settings: THP-1, 72 h
# MV4-11 [6] = test: Cell cycle arrest in human MV4-11 cells assessed as accumulation at G2 phase at 1000 nM after 48 hrs by PI/RNase staining based FACS analysis (reference value: 13.95%); format: functional
# MV4-11 [7] = test: Induction of apoptosis in human MV4-11 cells assessed as early apoptotic cells at 1000 nM after 48 hrs by annexin V/propidium iodide staining based FACS analysis (reference value: 6.31%); format: functional
# HL-60 = test: Antiproliferative activity against human HL60 cells after 72 hrs by MTT assay; format: functional, cell-based; settings: HL-60, 72 h
# MV4-11 [8] = test: Antitumor activity against human MV4-11 cells xenografted in nude BALB/c mouse assessed as tumor growth inhibition at 50 mg/kg, po qd for 14 days measured every 2 days; format: functional; settings: MV4-11, po, read-out: TGI
# MCF7 = test: Antiproliferative activity against human MCF7 cells after 72 hrs by SRB assay; format: functional, cell-based; settings: MCF7, 72 h
# MV4-11 [9] = test: Cell cycle arrest in human MV4-11 cells assessed as cell debris level at 1000 nM after 48 hrs by PI/RNase staining based FACS analysis; format: functional
# MV4-11 [10] = test: Cell cycle arrest in human MV4-11 cells assessed as accumulation at G2 phase at 1 nM after 48 hrs by PI/RNase staining based FACS analysis (reference value: 13.95%); format: functional
# MV4-11 [11] = test: Antitumor activity against human MV4-11 cells xenografted in nude BALB/c mouse assessed as tumor growth inhibition at 50 mg/kg, ip qd for 14 days measured every 2 days; format: functional; settings: MV4-11, ip, read-out: TGI
# [12] = Half life in overnight fasted Sprague-Dawley rat plasma at 1 mg/kg, iv up to 24 hrs by LC-MS/MS analysis; format: ADME, organism-based
# MV4-11 [13] = test: Induction of apoptosis in human MV4-11 cells assessed as early apoptotic cells at 1 nM after 48 hrs by annexin V/propidium iodide staining based FACS analysis (reference value: 6.31%); format: functional
# MV4-11 [14] = test: Induction of apoptosis in human MV4-11 cells assessed as necrotic cells at 10 nM after 48 hrs by annexin V/propidium iodide staining based FACS analysis (reference value: 0.05%); format: functional
# MV4-11 [15] = test: Antitumor activity against human MV4-11 cells xenografted in nude BALB/c mouse assessed as tumor growth inhibition at 25 mg/kg, ip qd for 14 days measured every 2 days; format: functional; settings: MV4-11, ip, read-out: TGI
# [16] = target: Receptor-type tyrosine-protein kinase FLT3 (Homo sapiens, UniProt P36888, F691L/ITD); test: Binding affinity to human partial length FLT3 ITD/F691L mutant expressed in mammalian expression system after 1 hr
# [17] = Ratio of IC50 for human WI38 cells to IC50 for human MV4-11 cells; format: toxicity; settings: WI38 cells versus MV4-11 cells, read-out: Ratio IC50
# MV4-11 [18] = test: Cell cycle arrest in human MV4-11 cells assessed as accumulation at subG1 phase at 100 nM after 48 hrs by PI/RNase staining based FACS analysis (reference value: 0%); format: functional
# [19] = target: T1, Receptor-type tyrosine-protein kinase FLT3 (Homo sapiens, UniProt P36888); test: Binding affinity to human partial length wild type FLT3 (592 to 969 residues) expressed in bacterial expression system after 1 hr
# T1 sequence (P36888 whole entry): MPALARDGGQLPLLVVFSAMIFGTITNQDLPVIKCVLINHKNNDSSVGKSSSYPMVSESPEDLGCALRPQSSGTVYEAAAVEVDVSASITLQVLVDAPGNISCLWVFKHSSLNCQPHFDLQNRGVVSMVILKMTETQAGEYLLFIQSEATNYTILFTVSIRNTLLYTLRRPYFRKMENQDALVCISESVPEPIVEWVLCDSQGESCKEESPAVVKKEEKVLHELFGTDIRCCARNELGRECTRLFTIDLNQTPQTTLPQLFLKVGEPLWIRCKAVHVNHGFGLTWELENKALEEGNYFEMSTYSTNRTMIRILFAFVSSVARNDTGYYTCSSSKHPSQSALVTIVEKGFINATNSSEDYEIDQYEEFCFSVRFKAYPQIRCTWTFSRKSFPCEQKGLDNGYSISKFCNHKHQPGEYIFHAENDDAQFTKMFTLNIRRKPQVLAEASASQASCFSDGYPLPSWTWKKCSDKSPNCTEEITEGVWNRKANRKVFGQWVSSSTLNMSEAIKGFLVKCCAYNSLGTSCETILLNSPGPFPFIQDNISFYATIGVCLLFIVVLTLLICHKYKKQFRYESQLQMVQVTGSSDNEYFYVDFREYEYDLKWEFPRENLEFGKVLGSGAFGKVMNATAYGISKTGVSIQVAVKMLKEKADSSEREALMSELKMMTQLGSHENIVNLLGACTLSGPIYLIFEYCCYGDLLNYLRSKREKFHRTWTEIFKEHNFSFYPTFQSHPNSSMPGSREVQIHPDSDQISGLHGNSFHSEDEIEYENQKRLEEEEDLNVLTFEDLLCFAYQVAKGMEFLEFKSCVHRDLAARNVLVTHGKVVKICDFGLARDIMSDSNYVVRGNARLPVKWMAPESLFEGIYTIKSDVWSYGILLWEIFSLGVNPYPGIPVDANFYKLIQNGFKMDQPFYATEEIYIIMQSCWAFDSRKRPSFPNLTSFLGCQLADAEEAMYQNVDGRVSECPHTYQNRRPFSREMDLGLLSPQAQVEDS
# NCI-H146 = test: Antiproliferative activity against human NCI-H146 cells after 72 hrs by MTT assay; format: functional, cell-based; settings: NCI-H146, 72 h
# WI-38 = test: cells; settings: Homo sapiens, WI-38, 72 h
# Description: Antiproliferative activity against human WI38 cells after 72 hrs by SRB assay
# K562 = test: cells; settings: Homo sapiens, K562, 72 h
# Description: Antiproliferative activity against FLT3-deficient human K562 cells after 72 hrs by MTT assay
# RKO = test: Antiproliferative activity against human RKO cells after 72 hrs by SRB assay; format: functional, cell-based
# SH-SY5Y = test: Antiproliferative activity against human SH-SY5Y cells after 72 hrs by SRB assay; format: functional, cell-based
structure (smiles),measurement,setting,value
Cc1cc(Nc2ncc3ncc(=O)n(-c4ccc(N)cc4)c3n2)ccc1N1CCN(C)CC1,Activity,MV4-11 [1],21.77%
same,Activity,MV4-11 [2],3.49%
same,Kd,[3],0.25 nM
same,Activity,MV4-11 [4],2.06%
same,Activity,[5],< 1%
same,IC50,THP-1,> 10000 nM
same,Activity,MV4-11 [6],0%
same,Activity,MV4-11 [7],38.4%
same,IC50,HL-60,1380 nM
same,inhibition in vivo at 50 mg/kg,MV4-11 [8],128%
same,IC50,MCF7,> 10000 nM
same,Activity,MV4-11 [9],16.38%
same,Activity,MV4-11 [10],12.59%
same,inhibition in vivo at 50 mg/kg,MV4-11 [11],136%
same,half-life,[12],3.11 h
same,Activity,MV4-11 [13],6.09%
same,Activity,MV4-11 [14],0.01%
same,inhibition in vivo at 25 mg/kg,MV4-11 [15],129%
same,Kd,[16],5.7 nM
same,selectivity ratio,[17],33 to 81
same,Activity,MV4-11 [18],12%
same,Kd,[19],5 nM
same,IC50,NCI-H146,> 10000 nM
same,IC50,WI-38,4120 nM
same,IC50,K562,> 10000 nM
same,IC50,RKO,1930 nM
same,IC50,SH-SY5Y,5570 nM
